Here are results for one molecule from paper PMC8267945, “Plumbagin, a Natural Product with Potent Anticancer Activities, Binds to and Inhibits Dihydroorotase, a Key Enzyme in Pyrimidine Biosynthesis” (International Journal of Molecular Sciences, 2021).

What all share (format): cell-based, mouse
For data set [1], the system named is 4T1 cells. Briefly: clonogenic formation assay. How it is done:
A clonogenic formation assay was used to assess the 4T1 cell growth to study whether the PLU can inhibit 4T1 cell proliferation. Briefly, 4T1 cells were seeded at a density of 10^3 cells per well into 6-well plates and incubated overnight for attachment. After different treatments, plates were incubated for 5–7 days to allow clonogenic growth. After washing with PBS, colonies were fixed with methanol and stained with 0.5% crystal violet for 20 min, and the number of colonies was counted under a light microscope.

Data set [2] relates to 4T1 cells. The data set is described as follows: in vitro. The note with it: 10 μM PLU, 24 h, 4T1 cells. On the procedure: (§1) The 4T1 cells (1 × 10^4) were incubated with PLU in a 100 μL volume. After 24 h, the anticancer potentiality was estimated.
The nature of another data set: in vitro. The note with it: mouse; PLU 2 μM, 4T1 cells; read-out: Death rate (cell mortality). How it is done: as §1

`CC1=CC(=O)c2c(O)cccc2C1=O` [PLU, plumbagin] showed a Colony count in the data set with 4T1 cells [1] (PLU 2 μM) of 73%. The “suppression of proliferation and colony formation” value in the data set with 4T1 cells [1] (pretreatment with 10 μM PLU) is 98%. The molecule also registered a cell deaths with 4T1 cells [2] of 100%. Besides, the mortality at 24 h, 2 μM in “in vitro” was found to be 8%.

In general, mortality refers to the percentage killed.
